From patent US7659263B2, “Thienopyrrole compound and use thereof as HCV polymerase inhibitor” (Japan Tobacco Inc., priority 2004, dated 2010)
Where a name gives a salt, the structure may show the parent alone.

Tests used:
NS5B 1b = target: T1, NS5B 1b (Hepatitis C virus genotype 1b, UniProt P26663); assay: Assay of enzyme (HCV polymerase) inhibitory activity, NS5B 1b; type: biochemical
T1 construct: a region encoding NS5B (J Virol 1991 March, 65(3), 1105-13, 544 amino acids after deletion of 47 amino acids on the C-terminal); 6 His (C); made in house; host or cells: Escherichia coli
T1 sequence (P26663 2420-2963): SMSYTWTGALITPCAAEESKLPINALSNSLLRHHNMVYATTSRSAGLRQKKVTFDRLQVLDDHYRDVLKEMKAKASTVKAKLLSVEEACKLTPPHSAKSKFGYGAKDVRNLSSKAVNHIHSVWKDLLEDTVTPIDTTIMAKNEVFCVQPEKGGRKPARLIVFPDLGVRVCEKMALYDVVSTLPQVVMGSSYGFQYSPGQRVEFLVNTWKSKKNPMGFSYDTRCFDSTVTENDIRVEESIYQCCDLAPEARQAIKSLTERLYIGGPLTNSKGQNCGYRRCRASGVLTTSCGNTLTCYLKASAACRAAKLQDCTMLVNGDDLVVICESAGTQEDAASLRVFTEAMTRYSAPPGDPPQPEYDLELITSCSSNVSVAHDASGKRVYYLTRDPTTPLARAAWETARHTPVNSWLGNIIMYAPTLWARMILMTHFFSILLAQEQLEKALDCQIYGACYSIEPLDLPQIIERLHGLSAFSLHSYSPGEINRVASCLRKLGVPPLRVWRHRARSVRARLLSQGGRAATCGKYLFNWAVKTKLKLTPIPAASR
Source text: The evaluation of the HCV polymerase inhibitory activity of the compound of the present invention is explained in the following. This polymerase is an enzyme coded for by the non-structural protein region called NS5B on the genome RNA of HCV (EMBO J., 15:12-22, 1996).
i) Preparation of enzyme (HCV polymerase)
Using, as a template, a cDNA clone corresponding to the full length genome RNA of HCV BK strain obtained from the blood of a patient with hepatitis C, a region encoding NS5B (J Virol 1991 March, 65(3), 1105-13, 544 amino acids after deletion of 47 amino acids on the C-terminal) was amplified by PCR. The objective gene was prepared by adding a 6 His tag {base pair encoding 6 continuous histidine (His)} to the 3′ end thereof and transformed to Escherichia coli. The Escherichia coli capable of producing the objective protein was cultured. The obtained cells were suspended in a buffer solution and crushed in a microfluidizer. The supernatant was obtained by centrifugation and applied to various column chromatographys {mono-S, Sephacryl S-200 (Pharmacia)}, inclusive of metal chelate chromatography, to give a standard enzyme product.
ii) Synthesis of Substrate RNA
Using a synthetic primer designed based on the sequence of HCV genomic 3′ untranslated region, a DNA fragment (148 bp) containing polyU and 3′X sequence was entirely synthesized and cloned into plasmid pBluescript SK II(+) (Stratagene). The cDNA encoding full length NS5B, which was prepared in i) above, was digested with restriction enzyme KpnI to give a cDNA fragment containing the nucleotide sequence of from the restriction enzyme cleavage site to the termination codon. This cDNA fragment was inserted into the upstream of 3′ untranslated region of the DNA in pBluescript SK II(+) and ligated. The about 450 bp inserted DNA sequence was used as a template in the preparation of substrate RNA. This plasmid was cleaved immediately after the 3′X sequence, linearized and purified by phenol-chloroform treatment and ethanol precipitation to give DNA.
RNA was synthesized (37° C., 3 hr) by run-off method using this purified DNA as a template, a promoter of pBluescript SK II(+), MEGAscript RNA synthesis kit (Ambion) and T7 RNA polymerase. DNase I was added and the mixture was incubated for 1 hr. The template DNA was removed by decomposition to give a crude RNA product. This crude product was treated with phenol-chloroform and purified by ethanol precipitation to give the objective substrate RNA.
This RNA was applied to formaldehyde denaturation agarose gel electrophoresis to confirm the quality thereof and preserved at −80° C. iii) Assay of enzyme (HCV polymerase) inhibitory activity A test substance (compound of the present invention) and a reaction mixture (30 μl) having the following composition were reacted at 25° C. for 90 min.
10% Trichloroacetic acid at 4° C. and 1% sodium pyrophosphate solution (150 μl) were added to this reaction mixture to stop the reaction. The reaction mixture was left standing in ice for 15 min to insolubilize RNA. This RNA was trapped on a glass filter (Whatman GF/C and the like) upon filtration by suction. This filter was washed with a solution containing 1% trichloroacetic acid and 0.1% sodium pyrophosphate, washed with 90% ethanol and dried. A liquid scintillation cocktail (Packard) was added and the radioactivity of RNA synthesized by the enzyme reaction was measured on a liquid scintillation counter.
The HCV polymerase inhibitory activity (IC50) of the compound of the present invention was calculated from the values of radioactivity of the enzyme reaction with and without the 20 test substance. […]

NS5B 1a = target: T2, NS5B 1a (Hepatitis C virus genotype 1a, UniProt P27958); assay: Assay of enzyme (HCV polymerase) inhibitory activity, NS5B 1a; type: biochemical; conditions: HCV polymerase NS5B 1a; [3H]UTP incorporation, 25° C., 90 min
T2 construct: NS5B 1a
T2 sequence (P27958 2421-3011): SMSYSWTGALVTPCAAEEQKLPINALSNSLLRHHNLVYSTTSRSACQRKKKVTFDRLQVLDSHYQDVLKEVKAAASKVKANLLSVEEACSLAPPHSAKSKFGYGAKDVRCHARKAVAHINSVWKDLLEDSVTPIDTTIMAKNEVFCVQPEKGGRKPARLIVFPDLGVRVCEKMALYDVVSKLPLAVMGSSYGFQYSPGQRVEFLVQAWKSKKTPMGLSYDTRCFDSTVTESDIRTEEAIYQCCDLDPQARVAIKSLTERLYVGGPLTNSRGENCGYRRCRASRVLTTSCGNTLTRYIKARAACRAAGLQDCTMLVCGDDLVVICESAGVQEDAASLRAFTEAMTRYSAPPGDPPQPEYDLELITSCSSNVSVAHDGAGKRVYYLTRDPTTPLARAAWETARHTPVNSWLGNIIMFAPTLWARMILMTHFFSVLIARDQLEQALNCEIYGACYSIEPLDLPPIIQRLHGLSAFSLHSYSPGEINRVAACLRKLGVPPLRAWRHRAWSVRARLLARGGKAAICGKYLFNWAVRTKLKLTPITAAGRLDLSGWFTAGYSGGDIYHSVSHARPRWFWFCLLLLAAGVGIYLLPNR

For CC1CCCN(CCN2CCn3c(c(C4CCCCC4)c4sc(C(=O)O)cc43)-c3ccc(Cl)cc32)C1 (stereo not shown) [Example 30, 8-chloro-11-cyclohexyl-6-[2-(3-methylpiperidin-1-yl)ethyl]-5,6-dihydro-4H-1-thia-3b,6-diazabenzo[e]cyclopenta[a]azulene-2-carboxylic acid dihydrochloride], which IC50 (NS5B 1b) is on record?
Its IC50 is < 10 nM.

What about the IC50 (NS5B 1a) of the same molecule?
The IC50 was 10 to 100 nM.

Which IC50 (NS5B 1b) does the source give for COCC[C@@H]1CCCN(CCN2CCn3c(c(C4CCCCC4)c4sc(C(=O)O)cc43)-c3ccc(Cl)cc32)C1 [Example 31, (S)-8-chloro-11-cyclohexyl-6-{2-[3-(2-methoxyethyl)piperidin-1-yl]ethyl}-5,6-dihydro-4H-1-thia-3b,6-diazabenzo[e]cyclopenta[a]azulene-2-carboxylic acid dihydrochloride] here?
The IC50 was < 10 nM.

What about the IC50 (NS5B 1a) of the same molecule?
Its IC50 is 10 to 100 nM.

How did the IC50 (NS5B 1b) turn out when O=C(O)c1cc2c(s1)c(C1CCCCC1)c1n2CCN(CCN2CCCOCC2)c2cc(Cl)ccc2-1 [Example 32, 8-chloro-11-cyclohexyl-6-[2-(1,4-oxazepan-4-yl)ethyl]-5,6-dihydro-4H-1-thia-3b,6-diazabenzo[e]cyclopenta[a]azulene-2-carboxylic acid dihydrochloride] was run?
The IC50 was < 10 nM.

And the IC50 (NS5B 1a)?
The IC50 was 10 to 100 nM.

Which IC50 (NS5B 1b) does the source give for Cc1ccc2c(c1)N(CCN1CCN(C(=O)OC(C)(C)C)CC1)CCn1c-2c(C2CCCCC2)c2sc(C(=O)O)cc21 [Example 33, 6-[2-(4-tert-butoxycarbonylpiperazin-1-yl)ethyl]-11-cyclohexyl-8-methyl-5,6-dihydro-4H-1-thia-3b,6-diazabenzo[e]cyclopenta[a]azulene-2-carboxylic acid hydrochloride] here?
Its IC50 is 10 to 100 nM.

What about the IC50 (NS5B 1a) of the same molecule?
The IC50 was 10 to 100 nM.

For CC(C)(C)OC(=O)N1CCN(CCN2CCn3c(c(C4CCCCC4)c4sc(C(=O)O)cc43)-c3ccc(Cl)cc32)CC1 [Example 34, 6-[2-(4-tert-butoxycarbonylpiperazin-1-yl)ethyl]-8-chloro-11-cyclohexyl-5,6-dihydro-4H-1-thia-3b,6-diazabenzo[e]cyclopenta[a]azulene-2-carboxylic acid hydrochloride], which IC50 (NS5B 1b) is on record?
The IC50 was 10 to 100 nM.

What about the IC50 (NS5B 1a) of the same molecule?
Its IC50 is 10 to 100 nM.

What does the source list for CCN1CCN(C(=O)CN2CCn3c(c(C4CCCCC4)c4sc(C(=O)O)cc43)-c3ccc(C)cc32)CC1 [Example 35, 11-cyclohexyl-6-[2-(4-ethylpiperazin-1-yl)-2-oxoethyl]-8-methyl-5,6-dihydro-4H-1-thia-3b,6-diazabenzo[e]cyclopenta[a]azulene-2-carboxylic acid dihydrochloride]?
IC50 (NS5B 1b): 10 to 100 nM; IC50 (NS5B 1a): 10 to 100 nM

CCN1CCN(C(=O)CN2CCn3c(c(C4CCCCC4)c4sc(C(=O)O)cc43)-c3ccc(Cl)cc32)CC1 [Example 36, 8-chloro-11-cyclohexyl-6-[2-(4-ethylpiperazin-1-yl)-2-oxoethyl]-5,6-dihydro-4H-1-thia-3b,6-diazabenzo[e]cyclopenta[a]azulene-2-carboxylic acid dihydrochloride] was tested. Which IC50 (NS5B 1b) did it give?
The IC50 was 10 to 100 nM.

And the IC50 (NS5B 1a)?
Its IC50 is 10 to 100 nM.

For COc1ccc2c(c1)OCCn1c-2c(C2CCCCC2)c2sc(C(=O)NC3(C(=O)Nc4ccc(/C=C/C(=O)O)cc4)CCC3)cc21 [Example 37, (E)-3-[4-({1-[(11-cyclohexyl-8-methoxy-4,5-dihydro-6-oxa-1-thia-3b-azabenzo[e]cyclopenta[a]azulene-2-carbonyl)amino]cyclobutanecarbonyl}amino)phenyl]acrylic acid], which IC50 (NS5B 1b) is on record?
The IC50 was 10 to 100 nM.

What about the IC50 (NS5B 1a) of the same molecule?
The IC50 was 10 to 100 nM.

Cc1ccc2c(c1)N(C)CCn1c-2c(C2CCCCC2)c2sc(C(=O)NC3(C(=O)Nc4ccc(/C=C/C(=O)O)cc4)CCC3)cc21 [Example 38, (E)-3-[4-({1-[(11-cyclohexyl-6,8-dimethyl-5,6-dihydro-4H-1-thia-3b,6-diazabenzo[e]cyclopenta[a]azulene-2-carbonyl)amino]cyclobutanecarbonyl)amino)phenyl]acrylic acid] was tested. Which IC50 (NS5B 1b) did it give?
The IC50 was 10 to 100 nM.

What about the IC50 (NS5B 1a) of the same molecule?
Its IC50 is 10 to 100 nM.

Which results are given for CN1CCn2c(c(C3CCCCC3)c3sc(C(=O)NC4(C(=O)Nc5ccc(/C=C/C(=O)O)cc5)CCC4)cc32)-c2ccc(Cl)cc21 [Example 39, (E)-3-[4-({1-[(8-chloro-11-cyclohexyl-6-methyl-5,6-dihydro-4H-1-thia-3b,6-diazabenzo[e]cyclopenta[a]azulene-2-carbonyl)amino]cyclobutanecarbonyl}amino)phenyl]acrylic acid]?
IC50 (NS5B 1b): 10 to 100 nM; IC50 (NS5B 1a): 10 to 100 nM

What does the source list for COc1ccc2c(c1)OCCn1c-2c(C2CCCCC2)c2sc(C(=O)NC3(C(=O)Nc4cccc(/C=C/C(=O)O)c4)CCC3)cc21 [Example 40, (E)-3-[3-({1-[(11-cyclohexyl-8-methoxy-4,5-dihydro-6-oxa-1-thia-3b-azabenzo[e]cyclopenta[a]azulene-2-carbonyl)amino]cyclobutanecarbonyl}amino)phenyl]acrylic acid]?
IC50 (NS5B 1b): 10 to 100 nM; IC50 (NS5B 1a): 10 to 100 nM

Which IC50 (NS5B 1b) does the source give for CCOc1ccc2c(c1)OCCn1c-2c(C2CCCCC2)c2sc(C(=O)O)cc21 [Example 41, 11-cyclohexyl-8-ethoxy-4,5-dihydro-6-oxa-1-thia-3b-azabenzo[e]cyclopenta[a]azulene-2-carboxylic acid] here?
Its IC50 is 10 to 100 nM.

And the IC50 (NS5B 1a)?
The IC50 was 10 to 100 nM.

O=C(O)c1cc2c(s1)c(C1CCCCC1)c1n2CCOc2c-1cccc2N(CCN1CCCCC1)CCN1CCCCC1 [Example 42, 7-{bis[2-(piperidin-1-yl)ethyl]amino}-11-cyclohexyl-4,5-dihydro-6-oxa-1-thia-3b-azabenzo[e]cyclopenta[a]azulene-2-carboxylic acid trihydrochloride] was tested. Which IC50 (NS5B 1b) did it give?
The IC50 was < 10 nM.

And the IC50 (NS5B 1a)?
The IC50 was 10 to 100 nM.

How did the IC50 (NS5B 1b) turn out when CCOc1ccc2c(c1)OCCn1c-2c(C2CCCCC2)c2sc(C(=O)NC3(C(=O)Nc4ccc(/C=C/C(=O)O)cc4)CCC3)cc21 [Example 43, (E)-3-[4-({1-[(11-cyclohexyl-8-ethoxy-4,5-dihydro-6-oxa-1-thia-3b-azabenzo[e]cyclopenta[a]azulene-2-carbonyl)amino]cyclobutanecarbonyl}amino)phenyl]acrylic acid] was run?
The IC50 was 10 to 100 nM.

What about the IC50 (NS5B 1a) of the same molecule?
The IC50 was 10 to 100 nM.

What does the source list for CCOc1ccc2c(c1)N(C)CCn1c-2c(C2CCCCC2)c2sc(C(=O)O)cc21 [Example 44, 11-cyclohexyl-8-ethoxy-6-methyl-5,6-dihydro-4H-1-thia-3b,6-diazabenzo[e]cyclopenta[a]azulene-2-carboxylic acid]?
IC50 (NS5B 1b): 10 to 100 nM; IC50 (NS5B 1a): 10 to 100 nM

Which IC50 (NS5B 1b) does the source give for CCOc1ccc2c(c1)N(C)CCn1c-2c(C2CCCCC2)c2sc(C(=O)NC3(C(=O)Nc4ccc(/C=C/C(=O)O)cc4)CCC3)cc21 [Example 45, (E)-3-[4-({1-[(11-cyclohexyl-8-ethoxy-6-methyl-5,6-dihydro-4H-1-thia-3b,6-diazabenzo[e]cyclopenta[a]azulene-2-carbonyl)amino]cyclobutanecarbonyl}amino)phenyl]acrylic acid] here?
The IC50 was 10 to 100 nM.

And the IC50 (NS5B 1a)?
The IC50 was 10 to 100 nM.

Which IC50 (NS5B 1b) does the source give for O=C(O)c1cc2c(s1)c(C1CCCCC1)c1n2CCOc2c-1cccc2N(CCN1CCOCC1)CCN1CCOCC1 [Example 46, 7-{bis[2-(morpholin-4-yl)ethyl]amino}-1l-cyclohexyl-4,5-dihydro-6-oxa-1-thia-3b-azabenzo[e]cyclopenta[a]azulene-2-carboxylic acid trihydrochloride] here?
The IC50 was < 10 nM.

What about the IC50 (NS5B 1a) of the same molecule?
The IC50 was 10 to 100 nM.
